Measurements as given in patent US7101875B2, “Methods for treating arthritic disorders” (Wyeth, priority 2001, dated 2006).

Target: T1, cPLA2 (Homo sapiens, UniProt P47712)
T1 sequence (P47712 1-749): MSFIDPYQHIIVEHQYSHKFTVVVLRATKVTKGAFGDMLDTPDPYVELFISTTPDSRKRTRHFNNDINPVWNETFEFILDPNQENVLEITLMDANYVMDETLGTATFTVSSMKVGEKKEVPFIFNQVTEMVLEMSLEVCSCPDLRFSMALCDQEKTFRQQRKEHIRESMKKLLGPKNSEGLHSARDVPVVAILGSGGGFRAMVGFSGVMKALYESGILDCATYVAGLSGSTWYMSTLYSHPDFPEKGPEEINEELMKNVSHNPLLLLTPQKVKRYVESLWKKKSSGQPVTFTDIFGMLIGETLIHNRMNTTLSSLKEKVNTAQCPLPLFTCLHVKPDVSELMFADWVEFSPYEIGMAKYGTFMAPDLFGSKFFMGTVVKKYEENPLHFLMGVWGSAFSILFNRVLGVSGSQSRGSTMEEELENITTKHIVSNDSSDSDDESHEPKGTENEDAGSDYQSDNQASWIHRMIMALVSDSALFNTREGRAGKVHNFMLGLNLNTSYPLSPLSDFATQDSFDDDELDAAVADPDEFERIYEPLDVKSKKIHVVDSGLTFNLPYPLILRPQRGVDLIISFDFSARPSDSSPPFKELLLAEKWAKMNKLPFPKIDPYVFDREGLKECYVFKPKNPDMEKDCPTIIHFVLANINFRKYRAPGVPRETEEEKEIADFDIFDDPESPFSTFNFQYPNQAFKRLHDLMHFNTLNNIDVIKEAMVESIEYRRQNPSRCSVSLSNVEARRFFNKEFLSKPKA
Experiment: Coumarine Assay (hydrolysis of 7-hydroxycoumarinyl 6-heptenoate by cPLA2, fluorometric)
Type: biochemical
Conditions: 60 μM 7-hydroxycoumarinyl 6-heptenoate substrate, 4 μg cPLA2, pH 7.5, excitation 360 nm / emission 460 nm; read-out: Coumarin IC50

Compound | IC50 [µM]
2-{2-[1-Benzhydryl-5-chloro-2-(2-phenylmethanesulfonylamino-ethyl)-1H-indol-3-yl]-ethoxy}-benzoic acid [Example 283] | 0.5
4-[2-(1-benzhydryl-5-chloro-2-{2-[({2-[(3R,5S)-3,5-dimethylmorpholin-4-yl]ethyl}sulfonyl)amino]ethyl}-1H-indol-3-yl)ethoxy]benzoic acid [Example 250] | 2.1
4-{2-[1-Benzhydryl-5-chloro-2-{2-[({2-trifluoromethylsulfonylbenzene}-sulfonyl)amino]ethyl}-1H-indol-3-yl)propyl]benzoic acid [Example 208] | 0.24
4-{2-[1-benzhydryl-5-chloro-2-(2-{[(2,6-dimethylbenzyl)sulfonyl]amino}ethyl)-1H-indol-3-yl]ethoxy}benzoic acid [Example 279] | 0.16
Nc1ccccc1CS(=O)(=O)NCCc1cc(OCCc2cn(C(c3ccccc3)c3ccccc3)c3ccc(Cl)cc23)ccc1C(=O)O [Example 16, 2-(2-{[(2-Aminobenzyl)sulfonyl]amino}ethyl)-4-{2-[1-benzhydryl-5-chloro-1H-indol-3-yl]ethoxy}benzoic acid] | 0.98
CC(Cc1ccc(C(=O)O)cc1)c1c(CCNS(=O)(=O)Cc2ccccc2[N+](=O)[O-])n(C(c2ccccc2)c2ccccc2)c2ccc(Cl)cc12 (stereo not drawn) [Example 56, 4-{2-[1-Benzhydryl-5-chloro-2-{2-[({2-nitrobenzyl}-sulfonyl)amino]ethyl}-1H-indol-3-yl)propyl]benzoic acid] | 0.13
O=C(O)c1ccc(OCCc2c(CCNS(=O)(=O)Cc3ccc(Cl)c(Cl)n3)n(C(c3ccccc3)c3ccccc3)c3ccc(Cl)cc23)cc1 [Example 76] | 0.4
COc1ccccc1SCS(=O)(=O)NCCc1c(CCOc2ccc(C(=O)O)cc2)c2cc(Cl)ccc2n1C(c1ccccc1)c1ccccc1 [Example 83] | 0.45
CC(C)Oc1cc(OCCc2c(CCNS(=O)(=O)Cc3ccc(Cl)c(Cl)c3)n(C(c3ccccc3)c3ccccc3)c3ccc(Cl)cc23)ccc1C(=O)O [Example 300, 4-{2-[1-benzhydryl-5-chloro-2-(2-{[(3,4-dichlorobenzyl)sulfonyl]amino}ethyl)-1H-indol-3-yl]ethoxy}-2-isopropoxybenzoic acid] | > 2

System: not given
Experiment: not given
Conditions: not given

melting point [°C] | Compound
117 to 119 | O=C(O)c1ccc(OCCc2c(CCNS(=O)(=O)Cc3ccc(Cl)c(Cl)c3)n(C(c3ccccc3)c3ccccc3)c3ccc(Cl)cc23)cc1F [Example 296, 4-{2-[1-benzhydryl-5-chloro-2-(2-{[(3,4-dichlorobenzyl)sulfonyl]amino}ethyl)-1H-indol-3-yl]ethoxy}-2-fluorobenzoic acid]
132 to 135 | O=C(O)c1ccc(OCCc2c(CCNS(=O)(=O)Cc3ccccc3Cl)n(C(c3ccccc3)c3ccccc3)c3ccc(Cl)cc23)cc1F [Example 297, 4-{2-[1-benzhydryl-5-chloro-2-(2-{[(2-chlorobenzyl)sulfonyl]amino}ethyl)-1H-indol-3-yl]ethoxy}-2-fluorobenzoic acid]
207 to 208 | CC(C)(Cc1ccc(S(=O)(=O)CCc2c(CCNS(=O)(=O)Cc3ccc(Cl)c(Cl)c3)n(C(c3ccccc3)c3ccccc3)c3ccc(Cl)cc23)cc1)C(=O)O [Example 298, 3-[4-({2-[1-benzhydryl-5-chloro-2-(2-{[(3,4-dichlorobenzyl)sulfonyl]amino}ethyl)-1H-indol-3-yl]ethyl}sulfonyl)phenyl]-2,2-dimethylpropanoic acid]
